Here are results for 13 molecules from US4791135A (priority 1987, dated 1988).

In brackets after ≈: the same amount, converted by molar mass. Read-outs that look alike come from different tables or passages of the source. Some results are limits rather than exact numbers.

The nature of data set [1]: physchem. The data set is classed as physicochemical. The procedure:
To compare the relative stability of the new agents vs. artesunic acid, stability studies of compound 8d and compound 1 were conducted in 2.5% K2 CO3 /D2 O solution at room temperature and were monitored by PMR. [drawing 8]
(§1) To a 5 mm NMR tube containing 10 mg of sample was added 0.5 mL of 2.5% K2 CO3 /D2 O solution. The initial spectrum of the solution was taken within 5 minutes, and again at intervals thereafter. The extent of hydrolysis was estimated by the following equation:
(§2) % Decomposition=(B/2A+B)×100
(§3) where A=integration of H-10 (5.80 ppm, d, J=10.8 Hz, 1H) and H-12 (5.71 ppm, s, 1H) of artesunate; B=integration of the singlet at 2.42 ppm for the potassium succinate formed. With time, the intensity of potassium succinate (2.42 ppm) signal increases, while that of H-10 and H-12 of artesunate decreases. The stability study of compound 1 in 5% NaHCO3 /D2 O was also carried out by the same procedure.

The conditions of data set [2]: background, cited from earlier work.
Data set [3] relates to Plasmodium berghei. In words: In vivo suppressive blood schizonticidal and curative activity in infected mice, 60 days survival. Also on record: species or system Plasmodium berghei (in mice). The settings on record: for Number active (A): active = survival time greater than twice control mice (12 to 14 days); for Number of Cures: cured = surviving 60 days. As for the experimental part:
The suppressive blood schizonticidal and curative activities of artemisinin, artelinic acid and artesunic acid, were measured in a test where mice were infected with 5.98×10^5 Plasmodium berghei parasitized cells intraperitoneally on day zero. […] The dose levels of compounds given were 640, 160, and 40 mg/kg/day. Blood films were taken on days 6, 13, and 20. Blood schizonticidal activity was determined by monitoring blood films for the appearance of parasites and for extended survival times compared to infected untreated controls. Mice surviving 60 days were considered cured. The infected untreated control mice (negative controls) died on either day 6 or 7. Compounds were considered active when the survival time of the treated mice was greater than twice the control mice, i.e., 12 to 14 days.

A short description of data set [4]: Stability in 5% NaHCO3/D2O at room temperature, monitored by PMR. The data set is classed as physicochemical. The procedure:
as §1, §2, §3

Data set [5] concerns P. falciparum Indochina (W-2) clone. In words: In vitro antimalarial susceptibility, 3H-hypoxanthine uptake, Indochina (W-2) clone. Type of data set: cell-based, Plasmodium falciparum. The settings on record: for IC50: Plasmodium falciparum. As for the experimental part:
(§4) The former clone is a strain that is resistant to mefloquine and the latter, to chloroquine, pyrimethamine, sulfadoxine, and quinine.
(§5) In vitro assays were conducted using a modification of the semiautomated microdilution technique of Desjardins et al., Antimicrob. Agents Chemoether., 1979, Volume 16, page 710 and Milhous et al., Antimicrob. Agents Chemother., 1985, Volume 27, page 525. Two P. falciparum malaria parasite clones, designated as Indochina (W-2) and Sierra Leone (D-6), were utilized in susceptibility testing. They were derived by direct visualization and micromanipulation from patient isolates obtained by the Centers for Disease Control, Atlanta, GA in 1980 and 1982, respectively. The patients had acquired infections either in Vietnam or Sierra Leone. The Indochina clone is resistant to the antimalarials chloroquine, sulfadoxine, pyrimethamine, and quinine, whereas the Sierra Leone, is resistant to mefloquine but susceptible to chloroquine, quinine, sulfadoxine, and pyrimethamine. Test compounds were initially dissolved in DMSO and 70% ethanol and diluted in RPMI 1640 culture medium with 10% human plasma to 400 fold. Drugs were subsequently further diluted using the Cetus Pro/Pette (Perkin-Elmer Corp., Norwalk, CT) over a range of 1.56-100×10^-9 molar. Parasite inocula (at 0.5% parasitemia and a 1% hematocrit) were incubated for 24 hours and added to equimolar concentrations of each test compound prior to the addition of ^3 H-hypoxanthine. After a further incubation of 18 hours, particulate matter was harvested from each microtiter well using an automated cell harvester (Skatron, Inc., Sterling, VA). Uptake of ^3 H-hypoxanthine was measured using a scintillation spectrophotometer (Model LS3801, Beckman Instruments, Irvine, CA).

Data set [6] relates to cerebral malaria. Particulars: background; cited from earlier work.
In data set [7] the test system is P. falciparum Sierra Leone (D-6) clone. Put plainly: In vitro antimalarial susceptibility, 3H-hypoxanthine uptake, Sierra Leone (D-6) clone. Type of data set: cell-based, Plasmodium falciparum. The settings on record: for IC50: Plasmodium falciparum. As for the experimental part:
as §4, §5

Data set [8] has as its system Plasmodium falciparum D-6 (Sierra Leone clone) and W-2 (Indochina clone). In words: In vitro antimalarial activity against both clones, summarised in words. The settings on record: D-6 and W-2 clones. Type of data set: cell-based. As for the experimental part: as §4
as §5, with “CA). Concentration-response data were analyzed by nonlinear regression and the IC50 's (50% inhibitory concentrations) for each compound were calculated.” for “CA).”

Data set [9] concerns malaria. The settings on record: background; cited from earlier work.
[10] abbreviates: 40 mg/kg/day SC x 3 days, 5% NaHCO3.
Setting [11] is: 160 mg/kg/day SC x 3 days, 5% NaHCO3.
The mark [12] stands for this setting: 640 mg/kg/day SC x 3 days, 5% NaHCO3.
The mark [13] stands for this setting: 40 mg/kg/day SC x 3 days, peanut oil.

For the molecule `C[C@H]1[C@H](OC(=O)CCC(=O)O)O[C@@H]2O[C@@]3(C)CC[C@H]4[C@H](C)CC[C@@H]1[C@@]24OO3` [Compound 1, artesunic acid], the results for the “half-life of hydrolysis (estimated)” value in data set [1] (2.5% K2CO3 solution) and in [4] (5% NaHCO3) were under 1 days and “about 4.5 days”, respectively. For the same molecule, in [1] (2.5% k2co3/d2o), the degraded at 1.5 h turned out to be 20%. The degraded at 24 h in data set [1] (2.5% k2co3/d2o) worked out at 60%. In addition, the degraded at 48 h in data set [1] (2.5% k2co3/d2o) came out at 75%; in [4] (5% NaHCO3/D2O, room temperature, 2 days, read-out: % Hydrolysis), 22%. Moreover, the degraded at 72 h was found to be 91% in data set [1] (2.5% k2co3/d2o) and 33% in data set [4] (5% NaHCO3/D2O, room temperature, 3 days, read-out: % Hydrolysis). Moreover, the degraded at 96 h in [1] (2.5% k2co3/d2o) turned out to be 98%; in [4] (5% NaHCO3/D2O, room temperature, 4 days, read-out: % Hydrolysis), 45%. Besides, the water solubility entry in [2] (listed as compound 1) is reported as “water-soluble”. Also, the “Number active (A)” value in data set [3] (setting [10]) is 2/5; in data set [3] (setting [11]), 3/5. Also, the “Number of Cures” value in data set [3] (setting [10]) was 0/5; in [3] (setting [11]) it was 0/5; in [3] (setting [12]), 5/5. Further, the “rate of hydrolysis compared with 2.5% K2CO3/D2O” value in data set [4] (5% NaHCO3/D2O vs 2.5% K2CO3/D2O) is listed as “slower”. In addition, in data set [4] (5% NaHCO3/D2O, room temperature, 4 hours, read-out: % Hydrolysis), the degraded at 4 h is under 5%. In addition, in [4] (5% NaHCO3/D2O, room temperature, 8 days, read-out: % Hydrolysis), the degraded at 192 h amounted to 75%. Moreover, the degraded at 216 h in [4] (5% NaHCO3/D2O, room temperature, 9 days, read-out: % Hydrolysis) worked out at 82%.
`C[C@@H]1CC[C@H]2[C@@H](C)C(=O)O[C@@H]3O[C@@]4(C)CC[C@@H]1[C@]32OO4` [Compound 3, Artemisinin]: the IC50 amounted to 0.66 ng/mL (≈ 2.34 nM) in data set [5] and 2.93 ng/mL (≈ 10.4 nM) in [7]. In addition, the “efficacy against cerebral malaria in man” value in [6] is listed as “proven efficacious against cerebral malaria in man”. Moreover, the “cross-resistance to mefloquine, chloroquine, pyrimethamine, sulfadoxine, quinine” value in data set [8] was “not cross-resistant”. The Blood films positive in data set [3] (40 mg/kg, peanut oil, SC) is 3 of 5. The “Number active (A)” value in [3] (setting [13]) is 3/5. Also, the “Number of Cures” value in [3] (setting [13]) is given as 2/5; in data set [3] (160 mg/kg/day SC x 3 days, peanut oil) it was 5/5; in data set [3] (640 mg/kg/day SC x 3 days, peanut oil) it was 5/5. For the same molecule, the Blood films result in data set [3] (160 mg/kg, peanut oil, SC) is recorded as “negative”; in data set [3] (640 mg/kg, peanut oil, SC) it was “negative”. The cross-resistance to chloroquine entry in data set [9] is “Neither artemisinin nor dihydroartemisinin exhibit cross-resistance to chloroquine”.
Regarding `CCOC(=O)COC1OC2OC3(C)CCC4C(C)CCC(C1C)C24OO3` (stereo not drawn) [Compound 5a, Ethyl 2-(10-Dihydroartemisininoxy)acetate], the figures for the IC50 in data set [5] and in data set [7] were 0.26 ng/mL (≈ 0.702 nM) and 0.6 ng/mL (≈ 1.62 nM), respectively.
As for `COC(=O)CCOC1OC2OC3(C)CCC4C(C)CCC(C1C)C24OO3` (stereo not drawn) [Compound 5b, Methyl 3-(10-Dihydroartemisininoxy)propionate], the IC50 turned out to be 0.64 ng/mL (≈ 1.73 nM) in data set [5] and 1.84 ng/mL (≈ 4.97 nM) in [7].
For `COC(=O)CCCOC1OC2OC3(C)CCC4C(C)CCC(C1C)C24OO3` (stereo not drawn) [Compound 5c, Methyl 4-(10-Dihydroartemisininoxy)butyrate] the same measures were 0.95 ng/mL (≈ 2.47 nM) and 3.06 ng/mL (≈ 7.96 nM).
`COC(=O)c1ccc(COC2OC3OC4(C)CCC5C(C)CCC(C2C)C35OO4)cc1` (stereo not drawn) [Compound 5d, Methyl p-(10-Dihydroartemisininoxy)methylbenzoate]: the IC50 in data set [5] is 0.37 ng/mL (≈ 0.855 nM); in [7], 0.77 ng/mL (≈ 1.78 nM).
For the molecule `CC1CCC2C(C)C(OCC(=O)O)OC3OC4(C)CCC1C32OO4` (stereo not drawn) [Compound 7a, Potassium 2-(10-Dihydroartemisininoxy)acetate], in [5], the IC50 turned out to be 26.2 ng/mL. In addition, the “In vitro antimalarial activity IC50, Sierra Leone (D-6)” value in data set [7] turned out to be 53.79 ng/mL.
Take `CC1CCC2C(C)C(OCCC(=O)O)OC3OC4(C)CCC1C32OO4` (stereo not drawn) [Compound 7b, Potassium 3-(10-Dihydroartemisininoxy)propionate]: the “In vitro antimalarial activity IC50, Indochina Clone (W-2)” value in [5] was 23.28 ng/mL. Also, in [7], the “In vitro antimalarial activity IC50, Sierra Leone (D-6)” value was found to be 85.02 ng/mL.
With `CC1CCC2C(C)C(OCCCC(=O)O)OC3OC4(C)CCC1C32OO4` (stereo not drawn) [Compound 7c, Potassium 4-(10-Dihydroartemisininoxy)butyrate], in data set [5], the IC50 was found to be 10.5 ng/mL. In data set [7], the “In vitro antimalarial activity IC50, Sierra Leone (D-6)” value is reported as 75.52 ng/mL.
The molecule `CC1CCC2C(C)C(OCCC(=O)O)OC3OC4(C)CCC1C32OO4` (stereo not drawn) [Compound 8b, 3-(10-Dihydroartemisininoxy)propionic Acid] gave an IC50 in [5] of 35.6 ng/mL (≈ 100 nM). Also, in data set [7], the “In vitro antimalarial activity IC50, Sierra Leone (D-6)” value was 51.74 ng/mL.
As for `CC1CCC2C(C)C(OCCCC(=O)O)OC3OC4(C)CCC1C32OO4` (stereo not drawn) [Compound 8c, 4-(10-Dihydroartemisininoxy)butyric Acid], the “In vitro antimalarial activity IC50, Indochina Clone (W-2)” value in data set [5] was 8.04 ng/mL. The “In vitro antimalarial activity IC50, Sierra Leone (D-6)” value in data set [7] is recorded as 17.90 ng/mL.
As for `CC1CCC2C(C)C(OCc3ccc(C(=O)O)cc3)OC3OC4(C)CCC1C32OO4` (stereo not drawn) [Compound 8d, Para-(10-Dihydroartemisininoxy)methylbenzoic Acid], the “In vitro antimalarial activity IC50, Indochina Clone (W-2)” value in data set [5] is reported as 1.38 ng/mL. Further, the detectable change result in [1] (2.5% K2CO3/D2O, room temperature, after 35 days) was “no detectable change”. Besides, in [1] (2.5% k2co3/d2o), the degraded at 1.5 h was found to be 0%, the degraded at 24 h is 0%, the degraded at 48 h was found to be 0% and the degraded at 72 h came to 0%. In data set [1] (2.5% k2co3/d2o), this molecule returned a degraded at 96 h of 0% and a degraded at 1608 h of under 3%. Further, the “In vitro antimalarial activity IC50, Sierra Leone (D-6)” value in [7] came to 4.07 ng/mL. In data set [3] (setting [10]), the “Number of Cures” value is 5/5. For the same molecule, the “Number of Cures” value in data set [3] (setting [11]) was 5/5. Besides, in data set [3] (setting [12]), the “Number of Cures” value is recorded as 5/5.
In the case of `C[C@H]1[C@H](OC(=O)CCC(=O)O)O[C@@H]2O[C@@]3(C)CC[C@H]4[C@H](C)CC[C@@H]1[C@@]24OO3` [Sodium artesunate], in data set [2], the water solubility entry is “water soluble”.

By IC50 is commonly meant the concentration needed to halve the response being measured.
